Reference: ChEMBL document CHEMBL4507274 (2021)

Assays:
[1] = molecular target: Tyrosine-protein kinase Fes/Fps (Homo sapiens) (UniProt P07332); conditions: Compound concentration 100.0 nM
[2] = molecular target: T1, Protein kinase C epsilon type (Homo sapiens) (UniProt Q02156); conditions: Compound concentration 100.0 nM
T1 sequence (whole entry): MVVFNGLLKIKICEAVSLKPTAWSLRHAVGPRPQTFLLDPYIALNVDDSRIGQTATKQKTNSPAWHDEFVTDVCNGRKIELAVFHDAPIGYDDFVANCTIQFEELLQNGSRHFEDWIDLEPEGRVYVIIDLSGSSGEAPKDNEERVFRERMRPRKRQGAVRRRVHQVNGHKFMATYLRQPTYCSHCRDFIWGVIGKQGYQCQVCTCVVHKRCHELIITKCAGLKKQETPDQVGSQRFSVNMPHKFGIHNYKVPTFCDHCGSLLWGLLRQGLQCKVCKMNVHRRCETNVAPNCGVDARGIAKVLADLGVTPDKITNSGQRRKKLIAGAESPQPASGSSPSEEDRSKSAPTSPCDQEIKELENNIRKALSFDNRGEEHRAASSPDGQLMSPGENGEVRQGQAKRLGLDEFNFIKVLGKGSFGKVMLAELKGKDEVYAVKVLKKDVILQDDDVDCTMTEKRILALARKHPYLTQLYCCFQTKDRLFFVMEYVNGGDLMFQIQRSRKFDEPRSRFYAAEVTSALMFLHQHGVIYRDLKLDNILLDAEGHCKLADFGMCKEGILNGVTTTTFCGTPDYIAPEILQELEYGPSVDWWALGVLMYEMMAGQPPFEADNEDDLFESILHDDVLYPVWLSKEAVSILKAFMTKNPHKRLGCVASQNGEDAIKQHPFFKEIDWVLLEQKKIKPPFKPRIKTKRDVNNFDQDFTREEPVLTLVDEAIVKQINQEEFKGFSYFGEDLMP

[3] = system: Tyrosine-protein kinase ABL1 (Homo sapiens), P00519 [T315I]; conditions: Compound concentration 100.0 nM
[4] = molecular target: Calcium/calmodulin-dependent protein kinase type II subunit alpha (Homo sapiens) (UniProt Q9UQM7); conditions: Compound concentration 100.0 nM
Chain of Calcium/calmodulin-dependent protein kinase type II subunit alpha (Homo sapiens) (Q9UQM7 whole entry): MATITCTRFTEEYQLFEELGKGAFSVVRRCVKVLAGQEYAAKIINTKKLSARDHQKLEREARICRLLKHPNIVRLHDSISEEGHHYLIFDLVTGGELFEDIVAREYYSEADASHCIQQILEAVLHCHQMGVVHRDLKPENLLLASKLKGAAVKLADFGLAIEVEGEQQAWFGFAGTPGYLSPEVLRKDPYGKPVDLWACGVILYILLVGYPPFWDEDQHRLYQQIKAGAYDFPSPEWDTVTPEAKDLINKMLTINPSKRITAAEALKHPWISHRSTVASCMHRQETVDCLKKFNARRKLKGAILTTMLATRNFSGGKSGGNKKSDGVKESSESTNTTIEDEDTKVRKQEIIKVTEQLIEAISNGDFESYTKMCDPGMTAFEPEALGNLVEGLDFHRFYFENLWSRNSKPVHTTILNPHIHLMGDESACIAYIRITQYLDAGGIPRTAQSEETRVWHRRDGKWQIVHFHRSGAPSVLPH

[5] = molecular target: Serine/threonine-protein kinase DCLK1 (Homo sapiens) (UniProt O15075); conditions: Compound concentration 100.0 nM
[6] = molecular target: Serine/threonine-protein kinase ICK (Homo sapiens) (UniProt Q9UPZ9); conditions: Compound concentration 100.0 nM
Chain of Serine/threonine-protein kinase ICK (Homo sapiens) (Q9UPZ9 whole entry, the tested form may be a part): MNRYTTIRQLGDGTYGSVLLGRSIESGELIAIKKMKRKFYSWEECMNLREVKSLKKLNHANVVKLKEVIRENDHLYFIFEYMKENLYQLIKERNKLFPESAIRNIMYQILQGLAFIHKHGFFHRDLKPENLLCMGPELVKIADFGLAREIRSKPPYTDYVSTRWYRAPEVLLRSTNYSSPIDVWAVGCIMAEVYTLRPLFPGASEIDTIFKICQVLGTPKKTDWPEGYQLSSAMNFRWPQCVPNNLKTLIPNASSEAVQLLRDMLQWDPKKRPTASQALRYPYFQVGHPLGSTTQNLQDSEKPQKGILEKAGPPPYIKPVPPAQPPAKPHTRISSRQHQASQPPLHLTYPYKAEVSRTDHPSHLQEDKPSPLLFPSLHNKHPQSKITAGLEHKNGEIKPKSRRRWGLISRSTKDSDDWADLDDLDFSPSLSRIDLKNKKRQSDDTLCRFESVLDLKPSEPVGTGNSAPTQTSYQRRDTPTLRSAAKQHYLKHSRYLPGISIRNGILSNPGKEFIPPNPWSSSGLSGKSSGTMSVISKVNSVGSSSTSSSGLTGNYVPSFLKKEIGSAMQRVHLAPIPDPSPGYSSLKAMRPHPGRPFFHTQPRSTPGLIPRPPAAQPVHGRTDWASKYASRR

[7] = molecular target: Phosphatidylinositol 3-kinase C2 domain-containing subunit gamma (Homo sapiens) (UniProt O75747); conditions: Compound concentration 100.0 nM
[8] = molecular target: Tyrosine-protein kinase ABL2 (Homo sapiens) (UniProt P42684); conditions: Compound concentration 100.0 nM
[9] = molecular target: Serine/threonine-protein kinase 38-like (Homo sapiens) (UniProt Q9Y2H1); conditions: Compound concentration 100.0 nM
[10] = molecular target: NUAK family SNF1-like kinase 2 (Homo sapiens) (UniProt Q9H093); conditions: Compound concentration 100.0 nM
Chain of NUAK family SNF1-like kinase 2 (Homo sapiens) (Q9H093 whole entry): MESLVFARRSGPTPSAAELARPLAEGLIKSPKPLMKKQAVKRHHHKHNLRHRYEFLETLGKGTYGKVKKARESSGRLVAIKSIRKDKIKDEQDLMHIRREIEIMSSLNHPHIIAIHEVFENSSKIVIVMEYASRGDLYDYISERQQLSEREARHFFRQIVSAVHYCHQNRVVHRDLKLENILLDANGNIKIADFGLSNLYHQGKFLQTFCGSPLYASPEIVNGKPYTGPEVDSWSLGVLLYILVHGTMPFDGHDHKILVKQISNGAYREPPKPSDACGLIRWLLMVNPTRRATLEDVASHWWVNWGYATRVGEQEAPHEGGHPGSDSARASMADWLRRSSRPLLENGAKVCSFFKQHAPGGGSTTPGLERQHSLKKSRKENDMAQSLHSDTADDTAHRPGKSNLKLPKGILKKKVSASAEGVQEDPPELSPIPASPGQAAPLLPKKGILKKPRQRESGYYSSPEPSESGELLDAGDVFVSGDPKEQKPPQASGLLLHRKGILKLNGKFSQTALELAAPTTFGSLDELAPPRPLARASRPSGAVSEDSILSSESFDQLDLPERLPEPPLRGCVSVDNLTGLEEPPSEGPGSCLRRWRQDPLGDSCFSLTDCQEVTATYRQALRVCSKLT

[11] = molecular target: Serine/threonine-protein kinase 32C (Homo sapiens) (UniProt Q86UX6); conditions: Compound concentration 100.0 nM
[12] = molecular target: Fibroblast growth factor receptor 3 (Homo sapiens) (UniProt P22607); conditions: Compound concentration 100.0 nM
Chain of Fibroblast growth factor receptor 3 (Homo sapiens) (P22607 23-806 limits assumed): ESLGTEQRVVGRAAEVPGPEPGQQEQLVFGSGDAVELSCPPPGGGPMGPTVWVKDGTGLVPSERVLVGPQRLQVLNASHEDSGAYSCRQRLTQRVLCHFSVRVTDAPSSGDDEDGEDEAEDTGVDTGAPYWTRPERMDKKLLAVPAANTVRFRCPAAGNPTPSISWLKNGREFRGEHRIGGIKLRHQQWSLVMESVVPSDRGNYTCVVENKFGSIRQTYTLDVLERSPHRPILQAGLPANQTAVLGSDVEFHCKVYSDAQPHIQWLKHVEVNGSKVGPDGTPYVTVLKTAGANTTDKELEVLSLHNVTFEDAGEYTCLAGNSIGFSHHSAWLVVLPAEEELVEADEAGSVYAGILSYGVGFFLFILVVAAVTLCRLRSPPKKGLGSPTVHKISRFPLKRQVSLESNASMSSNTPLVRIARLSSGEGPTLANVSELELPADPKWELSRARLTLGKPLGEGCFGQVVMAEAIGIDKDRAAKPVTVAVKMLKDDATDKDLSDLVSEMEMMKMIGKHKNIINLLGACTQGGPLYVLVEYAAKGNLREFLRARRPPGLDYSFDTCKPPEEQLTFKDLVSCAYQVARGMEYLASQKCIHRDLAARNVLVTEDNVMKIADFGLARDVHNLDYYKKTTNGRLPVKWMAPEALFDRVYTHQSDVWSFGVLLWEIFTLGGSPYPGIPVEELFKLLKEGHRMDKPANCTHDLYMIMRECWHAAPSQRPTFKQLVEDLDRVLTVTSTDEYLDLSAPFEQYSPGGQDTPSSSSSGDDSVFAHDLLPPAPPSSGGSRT

[13] = molecular target: Mitogen-activated protein kinase kinase kinase 11 (Homo sapiens) (UniProt Q16584); conditions: Compound concentration 100.0 nM
[14] = molecular target: Bone morphogenetic protein receptor type-1A (Homo sapiens) (UniProt P36894); conditions: Compound concentration 100.0 nM
[15] = system: Phosphatidylinositol 4,5-bisphosphate 3-kinase catalytic subunit alpha isoform (Homo sapiens), P42336 [M1043I]; conditions: Compound concentration 100.0 nM
Chain of Phosphatidylinositol 4,5-bisphosphate 3-kinase catalytic subunit alpha isoform (Homo sapiens), P42336 [M1043I] (P42336 whole entry M1043I, canonical isoform): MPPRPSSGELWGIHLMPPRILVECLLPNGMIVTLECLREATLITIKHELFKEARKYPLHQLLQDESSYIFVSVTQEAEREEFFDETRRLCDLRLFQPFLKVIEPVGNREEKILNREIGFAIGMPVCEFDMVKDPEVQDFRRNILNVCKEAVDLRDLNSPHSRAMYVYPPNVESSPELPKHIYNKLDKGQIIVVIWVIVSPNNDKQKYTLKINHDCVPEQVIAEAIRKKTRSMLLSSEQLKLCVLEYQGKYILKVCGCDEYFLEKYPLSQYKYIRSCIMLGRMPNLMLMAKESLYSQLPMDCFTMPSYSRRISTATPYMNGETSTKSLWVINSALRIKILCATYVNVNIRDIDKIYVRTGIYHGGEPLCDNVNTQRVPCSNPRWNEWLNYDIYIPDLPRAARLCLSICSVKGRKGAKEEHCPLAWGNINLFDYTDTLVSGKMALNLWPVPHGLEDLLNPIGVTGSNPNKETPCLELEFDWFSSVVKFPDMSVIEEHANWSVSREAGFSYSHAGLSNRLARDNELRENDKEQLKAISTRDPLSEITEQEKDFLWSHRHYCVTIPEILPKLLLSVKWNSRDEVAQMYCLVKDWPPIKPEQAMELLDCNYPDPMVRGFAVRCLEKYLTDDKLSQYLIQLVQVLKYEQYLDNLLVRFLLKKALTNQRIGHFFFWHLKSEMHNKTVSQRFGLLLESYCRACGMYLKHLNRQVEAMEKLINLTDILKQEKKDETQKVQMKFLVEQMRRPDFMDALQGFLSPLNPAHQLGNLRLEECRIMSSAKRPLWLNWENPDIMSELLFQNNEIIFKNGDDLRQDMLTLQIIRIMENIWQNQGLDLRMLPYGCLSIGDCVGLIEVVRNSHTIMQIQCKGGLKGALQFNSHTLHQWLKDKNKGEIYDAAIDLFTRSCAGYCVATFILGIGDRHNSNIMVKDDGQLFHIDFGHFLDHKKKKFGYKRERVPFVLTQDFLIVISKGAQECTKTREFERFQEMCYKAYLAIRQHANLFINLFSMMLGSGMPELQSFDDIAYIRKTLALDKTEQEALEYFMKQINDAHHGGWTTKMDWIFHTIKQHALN

[16] = molecular target: Serine/threonine-protein kinase MARK1 (Homo sapiens) (UniProt Q9P0L2); conditions: Compound concentration 100.0 nM
[17] = system: Receptor-type tyrosine-protein kinase FLT3 (Homo sapiens), P36888 [R834Q]; conditions: Compound concentration 100.0 nM
[18] = molecular target: Proto-oncogene tyrosine-protein kinase receptor Ret (Homo sapiens) (UniProt P07949); conditions: Compound concentration 100.0 nM
Chain of Proto-oncogene tyrosine-protein kinase receptor Ret (Homo sapiens) (P07949 whole entry): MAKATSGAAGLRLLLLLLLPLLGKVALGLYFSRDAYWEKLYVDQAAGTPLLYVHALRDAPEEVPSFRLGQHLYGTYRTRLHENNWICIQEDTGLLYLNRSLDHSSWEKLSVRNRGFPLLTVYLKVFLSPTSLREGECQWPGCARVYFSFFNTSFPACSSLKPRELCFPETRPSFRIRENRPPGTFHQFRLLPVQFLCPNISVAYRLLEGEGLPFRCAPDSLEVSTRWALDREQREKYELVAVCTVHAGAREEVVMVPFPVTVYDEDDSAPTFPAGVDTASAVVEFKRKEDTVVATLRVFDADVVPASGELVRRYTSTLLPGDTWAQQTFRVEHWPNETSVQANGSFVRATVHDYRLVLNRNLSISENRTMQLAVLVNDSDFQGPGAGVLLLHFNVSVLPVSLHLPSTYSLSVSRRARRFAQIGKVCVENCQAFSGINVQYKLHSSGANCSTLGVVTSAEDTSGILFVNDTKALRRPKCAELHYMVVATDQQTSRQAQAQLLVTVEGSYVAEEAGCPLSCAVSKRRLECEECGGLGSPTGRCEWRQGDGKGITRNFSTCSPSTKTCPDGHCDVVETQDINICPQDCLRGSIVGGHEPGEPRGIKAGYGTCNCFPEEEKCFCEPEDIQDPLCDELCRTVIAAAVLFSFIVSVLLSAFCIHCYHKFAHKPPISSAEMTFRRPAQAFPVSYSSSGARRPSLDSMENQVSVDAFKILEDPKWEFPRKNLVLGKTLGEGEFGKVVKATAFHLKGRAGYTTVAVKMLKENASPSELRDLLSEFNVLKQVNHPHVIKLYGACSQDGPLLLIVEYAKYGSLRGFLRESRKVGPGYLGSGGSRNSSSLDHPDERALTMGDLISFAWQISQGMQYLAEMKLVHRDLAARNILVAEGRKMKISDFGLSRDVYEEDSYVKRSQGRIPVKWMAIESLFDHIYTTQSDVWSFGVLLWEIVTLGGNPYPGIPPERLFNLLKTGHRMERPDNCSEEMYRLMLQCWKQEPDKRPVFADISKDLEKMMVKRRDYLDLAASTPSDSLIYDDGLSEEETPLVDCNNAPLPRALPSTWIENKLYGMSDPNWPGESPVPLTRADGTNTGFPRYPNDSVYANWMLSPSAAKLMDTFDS

[19] = molecular target: STE20/SPS1-related proline-alanine-rich protein kinase (Homo sapiens) (UniProt Q9UEW8); conditions: Compound concentration 100.0 nM
[20] = molecular target: Serine/threonine-protein kinase 26 (Homo sapiens) (UniProt Q9P289); conditions: Compound concentration 100.0 nM
[21] = molecular target: Receptor-interacting serine/threonine-protein kinase 4 (Homo sapiens) (UniProt P57078); conditions: Compound concentration 100.0 nM
[22] = molecular target: Discoidin domain-containing receptor 2 (Homo sapiens) (UniProt Q16832); conditions: Compound concentration 100.0 nM
[23] = molecular target: Dual specificity protein kinase TTK (Homo sapiens) (UniProt P33981); conditions: Compound concentration 100.0 nM
[24] = molecular target: Casein kinase II subunit alpha (Homo sapiens) (UniProt P68400); conditions: Compound concentration 100.0 nM
[25] = molecular target: Ribosomal protein S6 kinase alpha-6 (Homo sapiens) (UniProt Q9UK32); conditions: Compound concentration 100.0 nM
[26] = molecular target: Uncharacterized serine/threonine-protein kinase SBK3 (Homo sapiens) (UniProt P0C264); conditions: Compound concentration 100.0 nM
[27] = molecular target: Ephrin type-A receptor 8 (Homo sapiens) (UniProt P29322); conditions: Compound concentration 100.0 nM
[28] = molecular target: Cyclin-dependent kinase 2 (Homo sapiens) (UniProt P24941); conditions: Compound concentration 100.0 nM
[29] = molecular target: Sigma non-opioid intracellular receptor 1 (Homo sapiens, UniProt Q99720); conditions: Compound concentration 10.0 uM
Chain of Sigma non-opioid intracellular receptor 1 (Q99720 whole entry): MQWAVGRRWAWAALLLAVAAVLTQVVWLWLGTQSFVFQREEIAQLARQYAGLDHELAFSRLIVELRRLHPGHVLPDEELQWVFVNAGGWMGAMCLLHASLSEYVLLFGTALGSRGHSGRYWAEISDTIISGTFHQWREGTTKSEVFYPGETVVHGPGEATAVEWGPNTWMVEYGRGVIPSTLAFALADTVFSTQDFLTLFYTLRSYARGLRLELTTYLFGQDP

[30] = molecular target: Mitogen-activated protein kinase kinase kinase 7 (Homo sapiens) (UniProt O43318); conditions: Compound concentration 100.0 nM
[31] = molecular target: Phosphorylase b kinase gamma catalytic chain, skeletal muscle/heart isoform (Homo sapiens) (UniProt Q16816); conditions: Compound concentration 100.0 nM
[32] = molecular target: Inhibitor of nuclear factor kappa-B kinase subunit epsilon (Homo sapiens) (UniProt Q14164); conditions: Compound concentration 100.0 nM
[33] = molecular target: Platelet-derived growth factor receptor alpha (Homo sapiens) (UniProt P16234); conditions: Compound concentration 100.0 nM
[34] = system: Phosphatidylinositol 4,5-bisphosphate 3-kinase catalytic subunit alpha isoform (Homo sapiens), P42336 [H1047Y]; conditions: Compound concentration 100.0 nM

Compound `Cn1cc(Cl)c2c(Oc3c(F)cc(Nc4cc(Cl)nc(N)n4)cc3F)ccnc21` [BAY-4900] has a residual activity [1] of 100%, a residual activity [2] of 91% and a residual activity [3] of 86%. It also gave a residual activity [4] of 82%, a residual activity [5] of 85% and a residual activity [6] of 100%. It also gave a residual activity [7] of 100%, a residual activity [8] of 99% and a residual activity [9] of 100%. It also gave a residual activity [10] of 85%, a residual activity [11] of 100% and a residual activity [12] of 99%. It also gave a residual activity [13] of 100%, a residual activity [14] of 95% and a residual activity [15] of 64%. For the same compound, the residual activity [16] was 100%, the residual activity [17] was 83% and the residual activity [18] was 99%. For the same compound, the residual activity [19] was 100%, the residual activity [20] was 92% and the residual activity [21] was 100%. For the same compound, the residual activity [22] was 66%, the residual activity [23] was 100% and the residual activity [24] was 98%. The residual activity [25] was 72%, the residual activity [26] was 65% and the residual activity [27] was 100%. It also gave a residual activity [28] of 100%, an inhibition [29] of 22.3% and a residual activity [30] of 100%. The residual activity [31] was 100%, the residual activity [32] was 100% and the residual activity [33] was 98%. It also gave a residual activity [34] of 62%.
Compound `Cc1c[nH]c2nccc(Oc3c(F)cc(Nc4cc(Cl)nc(N)n4)cc3F)c12` [BAY-549] has a residual activity [1] of 100%, a residual activity [2] of 96% and a residual activity [3] of 84%. The residual activity [4] was 70%, the residual activity [5] was 65% and the residual activity [6] was 79%. The residual activity [7] was 100%, the residual activity [8] was 86% and the residual activity [9] was 87%. For the same compound, the residual activity [10] was 85%, the residual activity [11] was 93% and the residual activity [12] was 100%. For the same compound, the residual activity [13] was 100%, the residual activity [14] was 85% and the residual activity [15] was 66%. It also gave a residual activity [16] of 82%, a residual activity [17] of 85% and a residual activity [18] of 97%. The residual activity [19] was 94%, the residual activity [20] was 100% and the residual activity [21] was 84%. The residual activity [22] was 57%, the residual activity [23] was 96% and the residual activity [24] was 100%. It also gave a residual activity [25] of 95%, a residual activity [26] of 87% and a residual activity [27] of 87%. For the same compound, the residual activity [28] was 99%, the inhibition [29] was 54.8% and the residual activity [30] was 92%. It also gave a residual activity [31] of 100%, a residual activity [32] of 93% and a residual activity [33] of 84%. It also gave a residual activity [34] of 83%.
